In PubChem BioAssay AID1996:
In brackets after ≈: the same amount, converted by molar mass.

Conditions: buffer; pH 7.4; 200.0 µM

Row | Structure (SMILES) | solubility kinetic [µg/mL]
1 | C[C@H](Nc1ccc(C(F)(F)F)cc1[N+](=O)[O-])C(=O)O.[Cl-] | > 47
2 | Cc1cccc(NC(=O)c2cccc(C(=O)Nc3cccc(C)c3)n2)c1 | < 0.2
3 | O=C(Nc1ccccc1F)c1c[nH]c(=O)[nH]c1=O | 5.5 (≈ 22.1 µM)
4 | O=C(CN1C(=O)C(=O)N(Cc2ccco2)C1=O)NC1CCCCC1 | 45.8 (≈ 137 µM)
5 | O=C(CNC(=O)c1ccc(F)cc1)c1ccccc1 | > 38.6
6 | O=C(CNC(=O)c1ccccc1F)NCc1cccnc1 | > 43.1
7 | Nn1c(Nc2ccc(Cl)cc2)nncc1=O | > 35.6
8 | O=C(CCl)Nc1cccc(S(=O)(=O)NC2=NCCCCC2)c1 | > 51.6
9 | C=C(C)c1cccc(C(C)(C)NC(=O)NCc2ccncc2)c1 | > 46.4
10 | CCCCCCCOc1ccc(C(=O)Nc2cccnc2)cc1 | < 0.3
11 | O=C(COC(=O)C1C2CC3OC(=O)C1C3C2)Nc1ccc(Cl)cc1 (stereo not given) | 48.8 (≈ 140 µM)
12 | C=CCC(C(=O)NC(C)c1ccccc1)C(=O)NC(C)c1ccccc1 (stereo not given) | 16.5 (≈ 47.1 µM)
13 | Cc1cc(C)cc(N2C(=O)CN(Cc3ccccc3)C2=S)c1 | 4.1 (≈ 13.2 µM)
14 | O=C(Cn1cc([N+](=O)[O-])cn1)N1CCN(c2ccccc2)CC1 | > 47.3
15 | Cc1sc2ncn(-c3ccccc3)c(=O)c2c1C | 5.6 (≈ 21.8 µM)
16 | COc1ccc(C2C(C(=O)O)c3ccccc3C(=O)N2Cc2ccco2)cc1 (stereo not given) | > 56.6
17 | C=CCOc1ccc(CN(C)C(=O)C2CCCO2)cc1 (stereo not given) | > 41.3
18 | COc1ccc(NC(=O)c2cc(-c3ccco3)on2)cc1 | 0.8 (≈ 2.81 µM)
19 | COCCNC(=O)CN1C(=O)c2cccc3cccc1c23 | > 42.6
20 | Cc1cccc(-n2c(-c3ccccc3)nc3ccccc3c2=O)n1 | > 47

Row | Structure (SMILES) | solubility kinetic [µg/mL]
21 | Cc1cc(OC(C)C(=O)NCC2CCCO2)cc(C)c1Cl (stereo not given) | 40.7 (≈ 131 µM)
22 | O=c1[nH]c(=S)n(-c2ccccc2)c(O)c1C=NCc1ccccn1 | > 50.8
23 | CCOC(=O)c1ccccc1NC(=O)CSc1nc2ccccc2c(=O)n1CCCN1CCOCC1 | 18.6 (≈ 36.4 µM)
24 | O=c1oc(-c2ccccc2Br)nc2ccccc12 | 5.2 (≈ 17.2 µM)
25 | Cc1c(C=O)c2ccccc2n1Cc1ccccc1 | 2.6 (≈ 10.4 µM)
26 | Cc1nc(-c2ccc(NC(=O)Cc3ccccc3)cc2)cs1 | 1 (≈ 3.24 µM)
27 | Cc1ccc(/C=C/C(=O)O)cc1S(=O)(=O)Nc1ccc(C(=O)O)cc1 | 42.4 (≈ 117 µM)
28 | O=c1c(Cc2ccccc2)c(O)ccn1Cc1ccc2c(c1)OCO2 | 2.7 (≈ 8.05 µM)
29 | Nc1cc(N2CCCC2)c(Cl)cc1[N+](=O)[O-] | 3 (≈ 12.4 µM)
30 | O=C(Nc1ccc(O)cc1C(=O)O)c1cccs1 | > 39.5
31 | CC(=O)N1CCN(CC(=O)Nc2ccccc2C(=O)Nc2ccccc2)CC1 | > 57.1
32 | CCN1CC(CN(C)Cc2nc(Cc3ccccc3)no2)CC1=O (stereo not given) | > 49.3
33 | O=C(COC(=O)c1cccc(S(=O)(=O)NCc2ccccc2)c1)NC1CC1 | 15.2 (≈ 39.1 µM)
34 | Cc1csc2c(N3CCN(C(=O)NC(C)(C)C)CC3)ncnc12 | > 50
35 | Cc1ccc(S(=O)(=O)NC(=O)Nc2ccc(C)cc2C)cc1 | 35.1 (≈ 110 µM)
36 | O=C(Cc1ccccc1)NCC(=O)N1CCCCC1 | > 39.1
37 | COc1cc2ccccc2cc1C(=O)N1CCOCC1 | > 40.7
38 | Cn1cc(-c2cccc(C(F)(F)F)c2)cc(C#N)c1=O | 7.6 (≈ 27.3 µM)
39 | CCCNC(=O)COC(=O)c1ccc(N2CCCC2)c([N+](=O)[O-])c1 | 15.9 (≈ 47.4 µM)
40 | COc1ccc(C2CC(C)(c3ccc(OC)cc3)Nc3ccccc3N2)cc1 (stereo not given) | < 0.4

Row | Structure (SMILES) | solubility kinetic [µg/mL]
41 | O=C(c1cccs1)N1CCN(c2cccc(Cl)c2)CC1 | 26.3 (≈ 85.7 µM)
42 | CC1(C)C2SCC(=O)N2CCN1CC(=O)NN (stereo not given) | > 38.8
43 | COc1ccc(C(=O)Nc2ccc3c(c2)n(C)c(=O)n3C)cc1OC | 8.4 (≈ 24.6 µM)
44 | Cc1ccc(NC(=O)Cc2cc(C(=O)O)c3ccccc3n2)c(C)c1 | 2.5 (≈ 7.48 µM)
45 | Cc1cc(C)nc(/N=C(\N)N2CCc3ccccc32)n1 | 37.1 (≈ 139 µM)
46 | COc1ccc(CNC(=O)c2cc(=O)c3cc(C)ccc3o2)cc1 | < 0.7
47 | COc1ccc(Cl)cc1NC(=O)CN(C)Cc1cccs1 | 3 (≈ 9.24 µM)
48 | O=C(OCC(=O)N1CCc2ccccc21)c1ccc([N+](=O)[O-])o1 | 8.2 (≈ 25.9 µM)
49 | COc1c(O)cccc1/C=N/NC(=O)Cn1ccnc1C | > 43.2
50 | COc1ccccc1S(=O)(=O)N1CCn2cccc2C1C (stereo not given) | > 46
51 | CN(C)CCNC(=O)c1ccc2c(c1)NC(=O)c1ccccc1S2 | > 51.2
52 | Cc1c(-c2ccc(Br)cc2)[n+](=O)c2c(n1[O-])CCCCC2 | > 52.4
53 | CCOc1ccccc1Nc1nnc(SCC(=O)NC2CC2)s1 | > 52.6
54 | CCN1CCN(C(=O)/C=C/c2ccc(C)cc2)CC1 | > 38.8
55 | Cc1noc(C)c1-c1nc(CSc2ccccc2)no1 | 0.8 (≈ 2.78 µM)
56 | O=C(c1ccccc1)C1CCN(C(=O)c2cccs2)CC1 | 38.9 (≈ 130 µM)
57 | O=C(N/N=C/c1ccc(N2CCOCC2)cc1)c1ccncc1 | > 46.6
58 | CC[n+]1c(C)n(-c2ccccc2)c2ccc(NC(C)=O)cc21.[I-] | > 63.2
59 | CCCC(=O)Nc1ccc2c(c1)nc1n2CCN(CCOC)C1 | > 47.5
60 | COc1ccccc1OCC(O)CNCc1ccc2c(c1)OCO2 (stereo not given) | 47.4 (≈ 143 µM)
